# Data reported in PMC10175687 (Frontiers in Pharmacology, 2023).
# Like-named read-outs stand apart in the source and are kept apart here.
# Experiments:
# [1] = parameters: method as in Rowland, 1990; Rybak, 2006; Cavalcanti et al., 2010; settings: ref Rowland, 1990, Rybak, 2006, Cavalcanti et al., 2010, cited from earlier work
# [2] = parameters: species or system human; settings: in vivo
# Description: This was a prospective, open-label PPK study conducted in the ICU department of Peking University First Hospital. […] Pregnant and lactating patients, patients with special sites (endocardium, bone, joints, etc.) infections, or those who received any special treatment that may affect drug elimination, such as renal replacement therapy, were excluded.
# The infusion duration was 30–60 min. […] Additionally, in 1/3 patients, 2 mL more blood sample was collected immediately after the 5th infusion; in the other 1/3 patients, 2 mL more blood sample was collected 1 h after the 5th dose, and in the remaining 1/3 patients, 2 mL more concentration sample was taken 1 h before the 6th dose. All blood samples were collected in blood collection tubes anticoagulated by ethylene diamine tetra acetic acid (EDTA) for concentration determination.
# Blood samples were centrifuged within 12 h to obtain plasma. Then, 0.4 mL plasma samples were added with 0.05 mL internal standard solution (piperacillin sodium 0.15 mg/mL). Consequently, 0.6 mL acetonitrile was added, and the sample was vigorously shaken for 1 min and centrifuged at 12,000 r/min for 5 min. Then, 0.9 mL of the supernatant was transferred to a centrifuge tube, and 0.4 mL of dichloromethane was added. The solution was vigorously shaken for 1 min and centrifuged at 12,000 r/min for 5 min. The supernatant was then transferred into a vial for detection. HPLC detection conditions were as follows: Waters Symmetry C18 column (250 × 4.6 mm, 5 μm); mobile phase: 0.01 mol/L NaH2PO4 (pH = 3.3)-acetonitrile (75:25), isocratic elution; detection wavelength: 240 nm; flow rate: 1.0 mL/min; injection volume: 0.020 mL; column temperature: 35 °C ([Dong et al., 2011]). […] The above analytical method has passed the methodological verification. […] In terms of sensitivity, the signal-to-noise ratio (S/N) of the LOQ was >10. The relative standard deviations (RSDs) of the intra-day and inter-day precision of simulated plasma samples with high, medium and low concentrations were all less than 10%, and the intra-day and inter-day accuracies were 91.01%–101.13% and 92.98%–98.99%, respectively. […] The stability of simulated plasma samples with high, medium and low concentrations was good after being placed at room temperature for 4 h, frozen and thawed 3 times and stored at −80°C for 60 days, respectively, with the RSDs of tested samples all less than 10%.
# The model was established in a stepwise manner. In the basic model screening process, one-, two- and three-compartment models with additive, proportional and mixed error were tested respectively, and the basic model was selected by the objective function value (OFV) and visual diagnostic plots ([Gao et al., 2020]). The model parameters were assumed to follow a log-normal distribution, and the inter-individual variability for each structural parameter was modeled using the following equation: Pi=PTV×Exp ηi (1) where P i represents parameters for the i th individual, P TV are the typical values of the parameters, and η i are random variables with zero mean and variance of ω^2.
# Demographic and clinical characteristics that were considered plausible for affecting teicoplanin PK were tested as covariates, including sex, age, height, weight, BMI, ALT, AST, TBIL, DBIL, TP, ALB, WBC, Scr, GFR, and BUN. Individual PK estimates obtained from the selected structural model were firstly plotted against covariate values to assess relationships ([Byrne et al., 2017]). When a relationship between the covariate and the PK parameter was observed, the covariate was tested for inclusion into the PPK model. […]
# [3] = parameters: method as in 2 sources, one per row (each row's own in cited_ref): ref Rowland, 1990; Rybak, 2006; Cavalcanti et al., 2010 ||| ref EMA., 2022; settings: cited from earlier work; for half-life: ref Rowland, 1990, Rybak, 2006, Cavalcanti et al., 2010
Molecule,plasma protein binding rate ([1]; teicoplanin),"Q, Estimate (RSE%) [2]","Q, bootstrap median (95% PI) [2]","V1, Estimate (RSE%) [2]","V1, bootstrap median (95% PI) [2]","V2, Estimate (RSE%) [2]","V2, bootstrap median (95% PI) [2]","θCL_GFR, Estimate (RSE%) [2]","θCL_GFR, bootstrap median (95% PI) [2]","CL, Estimate (RSE%) ([2]; iv)","renal clearance ([3]; ref EMA., 2022) [mL/min/kg]","total clearance ([3]; ref EMA., 2022) [mL/min/kg]",half-life ([3]; teicoplanin) [h],"dose administered recovered in feces (via bile excretion) ([3]; within 8 days after administration, ref EMA., 2022) [%]","unchanged teicoplanin excreted by the urinary route ([3]; within 16 days, ref EMA., 2022) [%]",plasma protein binding rate ([1]; vancomycin),"half-life ([3]; vancomycin, adults with normal renal function) [h]"
teicoplanin,about 90%,3.12 (10.9) L/h,3.14 (2.62–3.90) L/h,20.1 (12.9) L,19.8 (16.1–26.2) L,101 (12.7) L,98.2 (77.5–122.2) L,0.437 (23.8),0.441 (0.234–0.740),1.03 (16.6) L/h,0.13 to 0.2,0.167 to 0.233,100 to 170,2.7,80,,
CN[C@H](CC(C)C)C(=O)N[C@H]1C(=O)N[C@@H](CC(N)=O)C(=O)N[C@H]2C(=O)N[C@H]3C(=O)N[C@H](C(=O)N[C@H](C(=O)O)c4cc(O)cc(O)c4-c4cc3ccc4O)[C@H](O)c3ccc(c(Cl)c3)Oc3cc2cc(c3O[C@@H]2O[C@H](CO)[C@@H](O)[C@H](O)[C@H]2O[C@H]2C[C@](C)(N)[C@H](O)[C@H](C)O2)Oc2ccc(cc2Cl)[C@H]1O [vancomycin],,,,,,,,,,,,,,,,30%–55%,6 to 12
